Results as given in patent publication US20230167073A1 (Teijin Pharma Limited, priority 2020, published 2023).

Biological target: T1, Human TRPC6 (Homo sapiens, UniProt Q9Y210)
T1 construct: expressed in transfected cells
T1 sequence (Q9Y210 1-931): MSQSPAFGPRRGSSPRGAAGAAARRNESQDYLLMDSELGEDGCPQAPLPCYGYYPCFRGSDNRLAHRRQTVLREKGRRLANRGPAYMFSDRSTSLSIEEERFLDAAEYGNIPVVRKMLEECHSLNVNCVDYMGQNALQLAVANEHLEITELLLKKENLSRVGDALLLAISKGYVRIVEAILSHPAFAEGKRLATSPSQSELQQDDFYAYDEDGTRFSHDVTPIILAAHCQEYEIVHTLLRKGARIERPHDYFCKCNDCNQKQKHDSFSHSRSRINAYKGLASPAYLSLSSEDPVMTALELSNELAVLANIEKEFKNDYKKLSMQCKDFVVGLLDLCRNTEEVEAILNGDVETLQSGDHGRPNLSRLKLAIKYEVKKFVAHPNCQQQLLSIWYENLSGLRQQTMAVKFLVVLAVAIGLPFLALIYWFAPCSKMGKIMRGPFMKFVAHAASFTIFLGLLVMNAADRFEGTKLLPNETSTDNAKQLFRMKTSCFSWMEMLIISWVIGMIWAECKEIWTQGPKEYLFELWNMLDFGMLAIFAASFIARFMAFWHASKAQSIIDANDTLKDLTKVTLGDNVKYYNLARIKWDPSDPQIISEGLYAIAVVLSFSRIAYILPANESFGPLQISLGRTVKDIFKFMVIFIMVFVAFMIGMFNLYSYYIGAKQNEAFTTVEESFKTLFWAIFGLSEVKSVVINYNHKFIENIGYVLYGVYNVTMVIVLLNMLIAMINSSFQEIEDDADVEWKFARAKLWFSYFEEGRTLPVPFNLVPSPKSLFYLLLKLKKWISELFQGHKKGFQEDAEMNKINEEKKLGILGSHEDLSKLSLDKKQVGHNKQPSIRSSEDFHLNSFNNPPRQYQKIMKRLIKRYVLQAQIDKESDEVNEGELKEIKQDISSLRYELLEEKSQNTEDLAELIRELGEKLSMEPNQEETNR
Assay: Evaluation of TRPC6 channel inhibitory activity (1), FLIPR Calcium 5 Assay Kit, OAG stimulation (Compound Nos. 1-1293)
Type: cell-based
Conditions: Human TRPC6 stably-expressing cells, OAG 30 μM, FLIPR Calcium 5 Assay Kit; read-out: Inhibitory activity (pIC50 class) (converted)
Summary of the method: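 Readout is pIC50 from four-parameter logistic fitting of inhibition of the OAG-evoked (30 μM final) fluorescence calcium signal. Human TRPC6 stable cells are dye-loaded with probenecid, and compound is applied 20 min ahead of agonist.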

IC50 [nM] | SMILES
> 1000 | Cc1nc(Oc2cc(C#N)ccc2-n2cc([C@@H](O)CNCC#N)cn2)cc(-c2ccccc2)n1 [Compound 279, 4-[4-[(1R)-2-(cyanomethylamino)-1-hydroxyethyl]pyrazol-1-yl]-3-(2-methyl-6-phenylpyrimidin-4-yl)oxybenzonitrile]
10 to 1000 | Cn1nc(C2CC2)cc1Oc1cc(C#N)ccc1-c1ncc(CN)s1 [compound 520, 4-[5-(aminomethyl)-1,3-thiazol-2-yl]-3-(5-cyclopropyl-2-methylpyrazol-3-yl)oxybenzonitrile]
> 1000 | COCCNc1cc(Oc2cc(C#N)ccc2-c2ncc(CN)cn2)nc(C)n1 [compound 639, 4-[5-(aminomethyl)pyrimidin-2-yl]-3-[6-(2-methoxyethylamino)-2-methylpyrimidin-4-yl]oxybenzonitrile]
10 to 1000 | Cc1nc(Oc2cc(C#N)ccc2-c2ccc(CC3(N)COC3)cn2)cc(N2CCC(F)CC2)n1 [compound 667, 4-[5-[(3-aminooxetan-3-yl)methyl]pyridin-2-yl]-3-[6-(4-fluoropiperidin-1-yl)-2-methylpyrimidin-4-yl]oxybenzonitrile]
< 10 | CC(C)CNc1cc(Oc2cc(C#N)ccc2-c2ncc(CN)cn2)cnn1 [compound 765, 4-[5-(aminomethyl)pyrimidin-2-yl]-3-[6-(2-methylpropylamino)pyridazin-4-yl]oxybenzonitrile]
< 10 | Cc1nc(N2CCOCC2)sc1C(=O)c1cc(C#N)ccc1-c1ccc(CCN)cc1 [compound 1059, 4-[4-(2-aminoethyl)phenyl]-3-(4-methyl-2-morpholin-4-yl-1,3-thiazole-5-carbonyl)benzonitrile]

Further lines, the molecule ahead of its results:

SMILES | IC50 [nM]
N#Cc1ccc(-c2ccc(CN)cn2)c(C(=O)c2nnc(N3CCOCC3)o2)c1 [compound 1089, 4-[5-(aminomethyl)pyridin-2-yl]-3-(5-morpholin-4-yl-1,3,4-oxadiazole-2-carbonyl)benzonitrile] | 10 to 1000
CC(C)OCc1cc(Oc2cc(C#N)ccc2-c2ccc(CCN)cn2)n(C)n1 [Compound 255, 4-[5-(2-aminoethyl)pyridin-2-yl]-3-[2-methyl-5-(propan-2-yloxymethyl)pyrazol-3-yl]oxybenzonitrile] | 10 to 1000
Cc1nc(Oc2cc(C#N)ccc2-n2cc([C@@H](O)CN)cn2)cc(N2CCC(F)(F)CC2)n1 [Compound 256, 4-[4-[(1R)-2-amino-1-hydroxyethyl]pyrazol-1-yl]-3-[6-(4,4-difluoropiperidin-1-yl)-2-methylpyrimidin-4-yl]oxybenzonitrile] | 10 to 1000
Cc1cc(Oc2cc(C#N)ccc2-c2ccc(N3CC[C@@H](N)C3=O)cn2)cc(N2CCOCC2)n1 [compound 569, 4-[5-[(3R)-3-amino-2-oxopyrrolidin-1-yl]pyridin-2-yl]-3-(2-methyl-6-morpholin-4-ylpyridin-4-yl)oxybenzonitrile] | > 1000
Cn1nc(N2CCCC2)cc1Oc1cc(F)ccc1-c1ncc(CN)cn1 [compound 995, [2-[4-fluoro-2-(2-methyl-5-pyrrolidin-1-ylpyrazol-3-yl)oxyphenyl]pyrimidin-5-yl]methanamine] | 10 to 1000
Cc1cc(Oc2cc(C#N)ccc2-c2ccc(C(C)(C)N)cn2)cc(N2CCOCC2)n1 [compound 397, 4-[5-(2-aminopropan-2-yl)pyridin-2-yl]-3-(2-methyl-6-morpholin-4-ylpyridin-4-yl)oxybenzonitrile] | 10 to 1000
Cc1nc(OCC(C)(C)C)cc(Oc2cc(C#N)ccc2-c2ccc(CCN)cc2)n1 [Compound 47, 4-[4-(2-Aminoethyl)phenyl]-3-[6-(2,2-dimethylpropoxy)-2-methylpyrimidin-4-yl]oxybenzonitrile] | 10 to 1000
Cn1nc(C2CC2)cc1Oc1cc(C#N)ccc1-c1ccc(CC(C)(C)N)cn1 [compound 334, 4-[5-(2-amino-2-methylpropyl)pyridin-2-yl]-3-(5-cyclopropyl-2-methylpyrazol-3-yl)oxybenzonitrile] | < 10
Cn1nc(-c2ccccc2)cc1Oc1cc(C#N)ccc1-c1ncc(CN)cn1 [compound 310, 4-[5-(aminomethyl)pyrimidin-2-yl]-3-(2-methyl-5-phenylpyrazol-3-yl)oxybenzonitrile] | < 10
